Assays:
[1] = target: bovine serum albumin (BSA) in collagen-BSA gel wafers (Bos taurus, UniProt P02769); assay: Collagen-BSA gel wafer assay: BSA diffusing from gel after fixation; conditions: for % of control retained (diluted 10 fold) / % change relative to fresh glutaraldehyde / % of control retained / % change relative to freshly prepared 4% glutaraldehyde: diluted 10 fold
Text: (§1) Two assays were used to evaluate the effectiveness of the composition of the present invention as a pulpotomy agent. The first was based on the diffusion of bovine serum albumin (BSA) from collagen-BSA gel wafers following fixation. That methodology was based on the method described in Flitney, F. W., "The time course of the fixation of albumin by formaldehyde, glutaraldehyde, acrolein and other higher aldehydes," 85 J. Royal Microscop. […] 353 (1966)). The collagen-BSA gel was formulated by Flitney to simulate the cytoplasm of the cell. Diffusion of BSA from the gel was intended to provide a reproducible model by which the relative change in the rate of leakage of protein through the cell membrane could be monitored during fixation with different techniques. This procedure was also modified as described in Example III to allow the evaluation of the depth of penetration of the composition of the present invention into adjoining cells of the pulpal tissue. The second assay was the determination of residual lactate dehydrogenase activity (LDH) in bovine pulp following treatment with the composition of the present invention.
The effectiveness of the fixative ability of the pulpotomy agent of the present invention was assayed according to the method set out in Flitney, supra. Briefly, that method is as follows. Collagen gels (0.3 g/2.8 ml) were prepared containing a physiological salt solution and bovine serum albumin (1 g BSA/10 ml). The mixture was dissolved in a boiling water bath and measured amounts were pipetted into plastic vials. Collagen-BSA wafers were removed from the vials and incubated in a buffered glutaraldehyde solution and the 4% glutaraldehyde-containing pulpotomy agent prepared as described in Example I, above, for 4 minutes. Wafers treated with distilled water or sodium phosphate buffer for identical time periods were used as respective controls. Following incubation, relative fixation of protein in the gels was ascertained by measuring the amount of BSA which diffuses from the gels into 4 ml of water during a 30 minute period. BSA was quantified by the method described by Bradford, M. M., "A rapid and sensitive method for quantification of microgram quantities of protein utilizing the principles of protein dye binding," 72 Anal. Biochem. 248 (1976).
The quantity of BSA which diffused from each gel is reported below as a percentage of control lost or retained.

[2] = target: bovine serum albumin (BSA) in collagen-BSA gels (Bos taurus, UniProt P02769); assay: Penetration (depth of fixation) assay: collagen-BSA gels submerged intact in vials
bovine serum albumin (BSA) in collagen-BSA gels, sequence (P02769 25-607): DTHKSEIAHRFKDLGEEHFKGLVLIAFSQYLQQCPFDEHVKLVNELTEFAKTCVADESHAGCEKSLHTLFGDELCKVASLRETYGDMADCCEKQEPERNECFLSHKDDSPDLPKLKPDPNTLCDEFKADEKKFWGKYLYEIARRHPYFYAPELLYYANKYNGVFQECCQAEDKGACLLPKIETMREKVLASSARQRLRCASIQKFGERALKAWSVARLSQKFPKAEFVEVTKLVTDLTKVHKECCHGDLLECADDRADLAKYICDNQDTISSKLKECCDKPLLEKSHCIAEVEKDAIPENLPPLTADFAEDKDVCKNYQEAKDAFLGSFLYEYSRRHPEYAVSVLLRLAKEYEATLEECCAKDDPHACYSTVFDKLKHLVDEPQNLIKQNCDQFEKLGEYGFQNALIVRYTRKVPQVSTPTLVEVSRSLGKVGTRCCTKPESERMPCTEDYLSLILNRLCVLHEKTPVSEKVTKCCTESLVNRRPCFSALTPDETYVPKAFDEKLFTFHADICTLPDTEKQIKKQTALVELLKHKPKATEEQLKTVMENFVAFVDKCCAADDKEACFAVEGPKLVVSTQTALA
Text: as §1

[3] = test system: lactate dehydrogenase (LDH) in bovine pulp; assay: Residual LDH activity in calf pulp after treatment; assay type: biochemical
Text: as §1
The effectiveness of the pulpotomy agent prepared as described in Example I, above, was also evaluated by an assay for residual LDH Activity. In this assay, calf pulp was harvested from freshly extracted molars, minced into pieces of approximately 1 mm^3, divided into aliquots weighing approximately 0.5 g, and stored at -20° C. until used. After thawing each aliquot was wet weighed and incubated in the 4% glutaraldehyde-containing pulpotomy agent prepared as described in Example I for 4 minutes. The treated sample was homogenized for one minute in ten ml of 0.2M Tris, pH 7.3, using a homogenizer. Following centrifugation for ten minutes at 300 rpm on a clinical centrifuge, the supernatant was decanted. One hundred microliters of the supernatant was added to a cuvette containing 2.8 ml Tris HCl, 1.0 ml of […], and 0.1 ml of 30 mM sodium pyruvate and vortexed for 10 seconds. The change in absorbence per minute was recorded on a spectrophotometer at 345 nm at room temperature. The activities were calculated as units/g wet weight/min, and the mean was calculated for five samples in each group. The values are reported as a percentage of controls and statistics were the same as described in Example II, above.

[4] = stored at room temperature (25° C.) for eight months

bovine serum albumin (BSA) in collagen-BSA gel wafers, sequence (P02769 25-607): as above

O=CCCCC=O [4% Glutaraldehyde, glutaraldehyde]
% of control retained (diluted 10 fold) ([1]; Fresh, mean of four samples): 80% | % of control gel retained ([1]; Fresh, heat assay, mean of four samples): 80% | % of control retained (undiluted solutions) ([1]; Fresh, mean of six samples): 85% | % change relative to fresh glutaraldehyde ([1]; Heated at 37° C. for 3 Months): -34% | % of control retained ([1]; Heated at 37° C. for 3 Months): 53% | % of control gel retained ([1]; Heated: storage at 37° C. for three months): 53% | % change relative to fresh glutaraldehyde ([1]; Stored at 25° C. for 3 Months): -21% | % of control retained ([1]; Stored at 25° C. for 3 Months): 63% | % change relative to freshly prepared 4% glutaraldehyde ([1]; cold nine months): -8% | % of control retained ([1]; made up fresh, mean of four samples): 80% | % change relative to freshly prepared 4% glutaraldehyde ([1]; room temperature nine months): -11% | % of control retained (undiluted solutions) [1, 4]: 85% | % of control retained (diluted 10 fold) ([1]; stored at room temperature for nine months): 72% | % of control retained (undiluted solutions) ([1]; stored cold (5° C.) for eight months): 85% | % of control retained (diluted 10 fold) ([1]; stored in the cold for nine months): 72% | % of control retained (BSA in gel) ([1]; wafers incubated 4 minutes, BSA diffusing into 4 ml water during 30 minutes, five samples): 78% | secondary diffusion of BSA (depth of penetration) ([2]; 2, 4, and 8 percent solutions, FIG. 2): decreased by approximately the same amount | % of control retained (BSA in gel, penetration) ([2]; vials with gels intact submerged 4 minutes, five samples): 27% | % of control retained (LDH activity) ([3]; Fresh, mean of 5 samples): 6% | % of control retained (residual LDH activity) ([3]; calf pulp incubated 4 minutes, five samples): 3.0% | LDH inhibition versus concentration ([3]; different concentrations for any treatment time, FIG. 3): log-dose response | % of control retained (LDH activity) [3, 4]: 3% | % of control retained (LDH activity) ([3]; stored in the cold (5° C.) for eight months): 4%

Reference: patent US4859186A, “Pulpotomy agent and method of use” (priority 1988, dated 1989)
